Results from the NIST ThermoML archive (doi:10.1016/j.tca.2008.05.004).

Settings: 101.33 kPa, Crystal; for molar entropy: Small (less than 1 g) adiabatic calorimetry

O=P([O-])([O-])[O-].[La+3] [lanthanum orthophosphate]
Settings | molar entropy [J/K/mol]
2 K | 0.00041
4 K | 0.00372
6 K | 0.01262
8 K | 0.0291
10 K | 0.0561
12 K | 0.09746
14 K | 0.1576
16 K | 0.2412
18 K | 0.3527
20 K | 0.4961
25 K | 1.015
30 K | 1.776
35 K | 2.783
40 K | 4.024
45 K | 5.479
50 K | 7.119
60 K | 10.84
70 K | 14.97
80 K | 19.34
90 K | 23.86
100 K | 28.43
110 K | 33.01
120 K | 37.56
130 K | 42.08
140 K | 46.55
150 K | 50.59
160 K | 55.29
170 K | 59.57
180 K | 63.77
190 K | 67.91
200 K | 71.98
210 K | 75.99
220 K | 79.93
230 K | 83.81
240 K | 87.62
250 K | 91.37
260 K | 95.06
270 K | 98.69
280 K | 102.3
290 K | 105.8
300 K | 109.2
320 K | 116
340 K | 122.5
360 K | 128.8
373 K | 132.9
400 K | 141
450 K | 155.1
500 K | 168.2
550 K | 180.3
600 K | 191.7
650 K | 202.4
700 K | 212.6
750 K | 222.1
800 K | 231.3
850 K | 240
900 K | 248.3
950 K | 256.3
1000 K | 263.9
1050 K | 271.3
1100 K | 278.5
1150 K | 285.4
1200 K | 292.1
1250 K | 298.6
1300 K | 305
1350 K | 311.1
1400 K | 317.1
1450 K | 323
1500 K | 328.7
1550 K | 334.3
1600 K | 339.8

Settings | mass density [kg/m3]
293 K, X-ray diffraction | 5076
